Measured values: patent publication US6670363B1, “Azole compounds as therapeutic agents for fungal infections” (Ranbaxy Laboratories Limited, priority 2000, dated 2003)
Converted amounts (≈) assume the structure as drawn.

Columns and labels:
[1] = test system: A. fumigatus s 1008; test: In vitro MIC, NCCLS M38P broth method (RPMI 1640/MOPS pH7), Aspergillus fumigatus; format: cell-based; settings: A. fumigatus strain 1008
[2] = test system: Candida; test: In vitro MIC, NCCLS M27A, Candida species; format: cell-based; set-up: MIC, Candida albicans 1.549 / MIC, Candida albicans Y-01-19 / MIC, C. krusei 766-1 / MIC, C. krusei Q. C / MIC, Candida tropicalis ATCC / MIC, C. glabrata 90030: unit not given beside the values; MIC, Candida albicans A 26 / MIC, C. parapsilosis Q. C.: unit not given here; settings: for MIC, C. glabrata 90030: C. glabrata strain 90030; for MIC, C. krusei 766-1: C. krusei strain 766-1; for MIC, C. krusei Q. C: C. krusei strain Q. C; for MIC, C. parapsilosis Q. C.: C. parapsilosis strain Q. C.; for MIC, Candida albicans 1.549: Candida albicans strain 1.549; for MIC, Candida albicans A 26: Candida albicans strain A 26; for MIC, Candida albicans Y-01-19: Candida albicans strain Y-01-19
[3] = test system: Cryptococcus neoformans; test: In vitro MIC, NCCLS M27A, Cryptococcus neoformans; format: cell-based; set-up: MIC, C. neoformans I: unit not given beside the values; MIC, C. neoformans M 106: unit not given here; settings: for MIC, C. neoformans I: C. neoformans strain I; for MIC, C. neoformans M 106: C. neoformans strain M 106
[4] = test system: Histoplasma capsulatum; format: cell-based

Structure (SMILES): O=c1n(-c2ccc(N3CCN(c4ccc(Cl)c(Cl)c4)CC3)cc2)cnn1CC(O)(Cn1cncn1)c1ccc(F)cc1F (stereo not drawn) [Compound 37, 2-[2-(2,4-Difluorophenyl)-2-hydroxy-3-(1H-1,2,4-triazol-1-yl)propyl]-4-{4-[4-(3,4-dichlorophenyl)-1-piperazinyl]phenyl}-3-(2H,4H)-1,2,4-triazolone]
- MIC, A. fumigatus 1008 [1]: >16
- MIC, C. glabrata 90030 [2]: 0.12
- MIC, C. krusei 766-1 [2]: 0.25
- MIC, C. krusei Q. C [2]: 0.06
- MIC, C. parapsilosis Q. C. [2]: <0.03
- MIC, Candida albicans 1.549 [2]: 0.06
- MIC, Candida albicans A 26 [2]: <0.03
- MIC, Candida albicans Y-01-19 [2]: 0.06
- MIC, Candida tropicalis ATCC [2]: <0.03
- MIC, C. neoformans I [3]: <0.03
- MIC, C. neoformans M 106 [3]: <0.03
- MIC, H. capsulatum [4]: < 0.03 µg/mL
- melting point: 194 to 196 °C

Structure (SMILES): Nc1ccc(N2CCN(c3ccc(-n4cnn(CC(O)(Cn5cncn5)c5ccc(F)cc5F)c4=O)cc3)CC2)c(N)c1 (stereo not drawn) [Compound 38, 2-[2-(2,4-Difluorophenyl)-2-hydroxy-3-(1H-1,2,4-triazol-1-yl)propyl]-4-{4-[4-(2,4-diaminophenyl)-1-piperazinyl]phenyl}-3-(2H,4H)-1,2,4-triazolone]
- MIC, A. fumigatus 1008 [1]: >16
- MIC, C. glabrata 90030 [2]: >16
- MIC, C. krusei 766-1 [2]: >16
- MIC, C. krusei Q. C [2]: >16
- MIC, C. parapsilosis Q. C. [2]: >16
- MIC, Candida albicans 1.549 [2]: >16
- MIC, Candida albicans A 26 [2]: >16
- MIC, Candida albicans Y-01-19 [2]: >16
- MIC, Candida tropicalis ATCC [2]: >16
- MIC, C. neoformans I [3]: >16
- MIC, C. neoformans M 106 [3]: >16
- MIC, H. capsulatum [4]: > 16 µg/mL
- melting point: 215 to 222 °C

Structure (SMILES): Cc1ccc(N2CCN(c3ccc(-n4cnn(CC(O)(Cn5cncn5)c5ccc(F)cc5F)c4=O)cc3)CC2)cc1 (stereo not drawn) [Compound 39, 2-[2-(2,4-Difluorophenyl)-2-hydroxy-3-(1H-1,2,4-triazol-1-yl)propyl]-4-{4-[4-(4-methylphenyl)-1-piperazinyl]phenyl}-3-(2H,4H)-1,2,4-triazolone]
- MIC, A. fumigatus 1008 [1]: 6.25
- MIC, C. glabrata 90030 [2]: 0.10
- MIC, C. krusei 766-1 [2]: 0.80
- MIC, C. krusei Q. C [2]: 0.10
- MIC, C. parapsilosis Q. C. [2]: <0.02
- MIC, Candida albicans 1.549 [2]: 0.10
- MIC, Candida albicans A 26 [2]: <0.02
- MIC, Candida albicans Y-01-19 [2]: 0.02
- MIC, Candida tropicalis ATCC [2]: 6.25
- MIC, C. neoformans I [3]: <0.02
- MIC, C. neoformans M 106 [3]: 0.05
- MIC, H. capsulatum [4]: 0.05 µg/mL (≈ 0.0873 µM)
- melting point: 146 to 148 °C

Structure (SMILES): O=c1n(-c2ccc(N3CCN(c4ccc([N+](=O)[O-])cc4[N+](=O)[O-])CC3)cc2)cnn1CC(O)(Cn1cncn1)c1ccc(F)cc1F (stereo not drawn) [Compound 40, 2-[2-(2,4-Difluorophenyl)-2-hydroxy-3-(1H-1,2,4-triazol-1-yl)propyl]-4-{4-[4-(2,4-dinitrophenyl)-1-piperazinyl]phenyl}-3-(2H,4H)-1,2,4-triazolone]
- MIC, A. fumigatus 1008 [1]: 1.56
- MIC, C. glabrata 90030 [2]: 0.80
- MIC, C. krusei 766-1 [2]: 6.25
- MIC, C. krusei Q. C [2]: 1.56
- MIC, C. parapsilosis Q. C. [2]: 0.05
- MIC, Candida albicans 1.549 [2]: 0.40
- MIC, Candida albicans A 26 [2]: <0.02
- MIC, Candida albicans Y-01-19 [2]: 0.40
- MIC, Candida tropicalis ATCC [2]: 1.56
- MIC, C. neoformans I [3]: 0.05
- MIC, C. neoformans M 106 [3]: 0.20
- MIC, H. capsulatum [4]: 0.05 µg/mL (≈ 0.0771 µM)
- melting point: 120 to 123 °C

Structure (SMILES): COc1ccc(N2CCN(c3ccc(-n4cnn(CC(O)(Cn5cncn5)c5ccc(F)cc5F)c4=O)cc3)CC2)cc1 (stereo not drawn) [Compound 41, 2-[2-(2,4-Difluorophenyl)-2-hydroxy-3-(1H-1,2,4-triazol-1-yl)propyl]-4-{4-[4-(4-methoxyphenyl)-1-piperazinyl]phenyl}-3-(2H,4H)-1,2,4-triazolone]
- MIC, A. fumigatus 1008 [1]: 6.25
- MIC, C. glabrata 90030 [2]: 0.80
- MIC, C. krusei 766-1 [2]: 1.56
- MIC, C. krusei Q. C [2]: 0.40
- MIC, C. parapsilosis Q. C. [2]: <0.02
- MIC, Candida albicans 1.549 [2]: 0.05
- MIC, Candida albicans A 26 [2]: <0.02
- MIC, Candida albicans Y-01-19 [2]: 0.10
- MIC, Candida tropicalis ATCC [2]: 3.12
- MIC, C. neoformans I [3]: 0.10
- MIC, C. neoformans M 106 [3]: 0.40
- MIC, H. capsulatum [4]: < 0.02 µg/mL
- melting point: 183 to 186 °C

Structure (SMILES): COc1ccccc1N1CCN(c2ccc(-n3cnn(CC(O)(Cn4cncn4)c4ccc(F)cc4F)c3=O)cc2)CC1 (stereo not drawn) [Compound 42, 2-[2-(2,4-Difluorophenyl)-2-hydroxy-3-(1H-1,2,4-triazol-1-yl)propyl]-4-{4-[4-(2-methoxyphenyl)-1-piperazinyl]phenyl}-3-(2H,4H)-1,2,4-triazolone]
- MIC, A. fumigatus 1008 [1]: >12.5
- MIC, C. glabrata 90030 [2]: 1.56
- MIC, C. krusei 766-1 [2]: 3.12
- MIC, C. krusei Q. C [2]: 1.56
- MIC, C. parapsilosis Q. C. [2]: <0.02
- MIC, Candida albicans 1.549 [2]: 0.40
- MIC, Candida albicans A 26 [2]: 0.05
- MIC, Candida albicans Y-01-19 [2]: 12.50
- MIC, Candida tropicalis ATCC [2]: 12.50
- MIC, C. neoformans I [3]: 0.20
- MIC, C. neoformans M 106 [3]: 0.80
- MIC, H. capsulatum [4]: 0.05 µg/mL (≈ 0.0849 µM)
- melting point: 95 to 97 °C

Structure (SMILES): O=c1n(-c2ccc(N3CCN(c4ccc(F)cc4)CC3)cc2)cnn1CC(O)(Cn1cncn1)c1ccc(F)cc1F (stereo not drawn) [Compound 43, 2-[2-(2,4-Difluorophenyl)-2-hydroxy-3-(1H-1,2,4-triazol-1-yl)propyl]-4-{4-[4-(4-fluorophenyl)-1-piperazinyl]phenyl}-3-(2H,4H)-1,2,4-triazolone]
- MIC, A. fumigatus 1008 [1]: >12.5
- MIC, C. glabrata 90030 [2]: 0.40
- MIC, C. krusei 766-1 [2]: 1.56
- MIC, C. krusei Q. C [2]: 0.20
- MIC, C. parapsilosis Q. C. [2]: <0.02
- MIC, Candida albicans 1.549 [2]: <0.02
- MIC, Candida albicans A 26 [2]: <0.02
- MIC, Candida albicans Y-01-19 [2]: 0.05
- MIC, Candida tropicalis ATCC [2]: 12.50
- MIC, C. neoformans I [3]: 0.05
- MIC, C. neoformans M 106 [3]: 0.05
- MIC, H. capsulatum [4]: < 0.02 µg/mL
- melting point: 173 to 177 °C

Structure (SMILES): O=c1n(-c2ccc(N3CCN(c4ccc(O)cc4)CC3)cc2)cnn1CC(O)(Cn1cncn1)c1ccc(F)cc1F (stereo not drawn) [Compound 44, 2-[2-(2,4-Difluorophenyl)-2-hydroxy-3-(1H-1,2,4-triazol-1-yl)propyl]-4-{4-[4-(4-hydroxyphenyl)-1-piperazinyl]phenyl}-3-(2H,4H)-1,2,4-triazolone]
- MIC, A. fumigatus 1008 [1]: >12.5
- MIC, C. glabrata 90030 [2]: 6.25
- MIC, C. krusei 766-1 [2]: >12.5
- MIC, C. krusei Q. C [2]: 6.25
- MIC, C. parapsilosis Q. C. [2]: 0.20
- MIC, Candida albicans 1.549 [2]: >12.5
- MIC, Candida albicans A 26 [2]: >12.5
- MIC, Candida albicans Y-01-19 [2]: 1.56
- MIC, Candida tropicalis ATCC [2]: 6.25
- MIC, C. neoformans I [3]: 1.56
- MIC, C. neoformans M 106 [3]: 3.12
- MIC, H. capsulatum [4]: 1.56 µg/mL (≈ 2.71 µM)
- melting point: 246 to 248 °C

Structure (SMILES): O=c1n(-c2ccc(N3CCN(c4ccc(Cl)cc4)CC3)cc2)cnn1CC(O)(Cn1cncn1)c1ccc(F)cc1F (stereo not drawn) [Compound 47, 2-[2-(2,4-Difluorophenyl)-2-hydroxy-3-(1H-1,2,4-triazol-1-yl)propyl]-4-{4-[4-(4-chlorophenyl)-1-piperazinyl]phenyl}-3-(2H,4H)-1,2,4-triazolone]
- MIC, A. fumigatus 1008 [1]: 3.12
- MIC, C. glabrata 90030 [2]: 3.12
- MIC, C. krusei 766-1 [2]: 1.56
- MIC, C. krusei Q. C [2]: 1.56
- MIC, C. parapsilosis Q. C. [2]: <0.02
- MIC, Candida albicans 1.549 [2]: 0.20
- MIC, Candida albicans A 26 [2]: <0.02
- MIC, Candida albicans Y-01-19 [2]: 0.20
- MIC, Candida tropicalis ATCC [2]: <0.02
- MIC, C. neoformans I [3]: <0.02
- MIC, C. neoformans M 106 [3]: 0.40
- MIC, H. capsulatum [4]: 0.05 µg/mL (≈ 0.0843 µM)
- melting point: 207 to 208 °C
